Columns and labels:
physchem = format: physicochemical
Outline: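 Reversed-phase HPLC per EEC directive 79/831 Annex V.A8, calibrated with straight-chain alkan-2-ones (C3–C16) of known Log P via linear interpolation of retention times. Lambda-max from UV spectra 200–400 nm at chromatographic peaks.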

Pyrenophora teres = Pyrenophora teres in vitro cell test; format: cell-based; conditions: 144 h, 20 ppm of active ingredient, liquid culture with spores, 6 days incubation, spectrometric measurement of mycelium growth, read-out: efficacy (inhibition of fungal growth)
Description: (§1) B-9. Pyrenophora Teres In Vitro Cell Test • Solvent: DMSO • Culture medium: 14.6 g anhydrous D-glucose (VWR), 7.1 g Mycological Peptone (Oxoid), 1.4 g granulated Yeast Extract (Merck), QSP 1 liter • Inoculum: spore suspension Fungicides were solubilized in DMSO and the solution used to prepare the required range of concentrations. […] A spore suspension of P. teres was prepared and diluted to the desired spore density. Fungicides were evaluated for their ability to inhibit spore germination and mycelium growth in liquid culture assay. The compounds were added in the desired concentration to the culture medium with spores. After 6 days incubation, fungi-toxicity of compounds was determined by spectrometric measurement of mycelium growth. Inhibition of fungal growth was determined by comparing the absorbance values in wells containing the fungicides with the absorbance in control wells without fungicides.

Sphaerotheca fuliginea = test: In vivo preventive test on Sphaerotheca fuliginea (powdery mildew on cucurbits); conditions: Podosphaera fuliginea, 192 h; 500 ppm of active ingredient; preventive spray on gherkin; evaluated 8 days after inoculation; 0% = control plants, 100% = no disease; read-out: efficacy
Description: (§2) B-4. In Vivo Preventive Test on Sphaerotheca fuliginea (Powdery Mildew on Cucurbits [table] The active ingredients were made soluble and homogenized in a mixture of Dimethyl sulfoxide/Acetone/Tween® 80 and then diluted in water to the desired concentration. The young plants of gherkin were treated by spraying the active ingredient prepared as described above. Control plants were treated only with an aqueous solution of Acetone/Dimethyl sulfoxide/Tween® 80. After 24 hours, the plants were contaminated by spraying the leaves with an aqueous suspension of Sphaerotheca fuliginea spores.

Botrytis cinerea = test: In vivo preventive test on Botrytis cinerea (grey mould); conditions: 500 ppm of active ingredient, preventive spray on gherkin or cabbage, evaluated 4 to 5 days after inoculation, 0% = control plants, 100% = no disease, read-out: efficacy
Description: as §2, with “B-2.” for “B-4.”, “Botrytis cinerea (Grey Mould” for “Sphaerotheca fuliginea (Powdery Mildew on Cucurbits”, “gherkin or cabbage” for “gherkin”, “Botrytis cinerea” for “Sphaerotheca fuliginea”

Alternaria alternata = Alternaria alternata in vitro cell test; format: cell-based; conditions: 120 h, 20 ppm of active ingredient, liquid culture with spores, 5 days incubation, spectrometric measurement of mycelium growth, read-out: efficacy (inhibition of fungal growth)
Description: as §1, with “B-6. Alternaria alternata In” for “B-9. Pyrenophora Teres In”, “Inoculum: spores” for “Inoculum: spore”, “of A. alternata” for “of P. teres”, “After 5” for “After 6”

[1] = system: Colletotrichum lindemuthianum; test: Colletotrichum lindemuthianum in vitro cell test; format: cell-based; conditions: 144 h, read-out: efficacy (inhibition of fungal growth)
Description: B-8. Colletotrichum lindemuthianum In Vitro Cell Test
• Solvent: DMSO • Culture medium: 14.6 g anhydrous D-glucose (VWR), 7.1 g Mycological Peptone (Oxoid), 1.4 g granulated Yeast Extract (Merck), QSP 1 liter • Inoculum: spores suspension
Fungicides were solubilized in DMSO and the solution used to prepare the required range of concentrations. The final concentration of DMSO used in the assay was ≤1%.
A spore suspension of C. lindemuthianum was prepared and diluted to the desired spore density.
Fungicides were evaluated for their ability to inhibit spores germination and mycelium growth in liquid culture assay. The compounds were added in the desired concentration to the culture medium with spores. After 6 days incubation, fungi-toxicity of compounds was determined by spectrometric measurement of mycelium growth. Inhibition of fungal growth was determined by comparing the absorbance values in wells containing the fungicides with the absorbance in control wells without fungicides.

Pyricularia oryzae = test: microbe, parasite or virus in culture; format: cell-based; conditions: 120 h, read-out: efficacy (inhibition of fungal growth)

Compound	chromatographic logP (physchem)	inhibition at 20 ppm (Pyrenophora teres)	pest or weed control at 500 ppm (Sphaerotheca fuliginea)	pest or weed control at 500 ppm (Botrytis cinerea)	inhibition at 20 ppm (Alternaria alternata)	inhibition at 20 ppm [1]	inhibition at 20 ppm (Pyricularia oryzae)
Cc1ccc(CCNC(=O)c2cc(Cl)ncc2Oc2ccc3c(c2)OC(F)(F)O3)c(C)c1 [Compound I-140, 2-chloro-5-[(2,2-difluoro-1,3-benzodioxol-5-yl)oxy]-N-[2-(2,4-dimethylphenyl)ethyl]pyridine-4-carboxamide]	4.82	90 to 100%	90 to 100%	70 to 79%	–	–	–
Cc1ccc(C(F)(F)CNC(=O)c2c(Oc3cccc(C(F)(F)F)c3)cnc(Cl)c2-n2cccn2)c(C)c1 [Compound I-167, 2-chloro-N-[2-(2,4-dimethylphenyl)-2,2-difluoroethyl]-3-(1H-pyrazol-1-yl)-5-[3-(trifluoromethyl)phenoxy]pyridine-4-carboxamide]	4.51	90 to 100%	90 to 100%	90 to 100%	90 to 100%	80 to 89%	80 to 89%

From US12552748B2, “Pyridine (thio)amides as fungicidal compounds” (Bayer Aktiengesellschaft, priority 2020, dated 2026)
